This note sets out measurements from ChEMBL document CHEMBL2440076, “New triarylpyrazoles as broad-spectrum anticancer agents: design, synthesis, and biological evaluation” (Eur J Med Chem, 2013).

What all share (format): functional
Assay [1] has as its system SR. Nature of the assay: Growth inhibition of human SR cells assessed as cell growth at 10^-4 M after 48 hrs by sulforhodamine B assay. To be noted: read-out: Activity. A general note: In SRB staining, fixed cells bind dye roughly in proportion to their protein.
Another assay deals with MOLT-4. Nature of the assay: Growth inhibition of human MOLT4 cells assessed as cell growth at 10^-7 M after 48 hrs by sulforhodamine B assay. To be noted: MOLT-4, 48 h, read-out: Activity.
The subject of assay [2] is A549. Description: Growth inhibition of human A549/ATCC cells assessed as cell growth at 10^-5 M after 48 hrs by sulforhodamine B assay. To be noted: A549, 48 h, read-out: Activity.
For a further assay, the system named is TK-10. Nature of the assay: Growth inhibition of human TK10 cells assessed as cell growth at 10^-6 M after 48 hrs by sulforhodamine B assay. To be noted: TK-10, 48 h, read-out: Activity.
Assay [3] in a line: Growth inhibition of human Hs 578T cells assessed as cell growth at 10^-4 M after 48 hrs by sulforhodamine B assay. To be noted: read-out: Activity.
For a further assay, the system named is SW-620. Nature of the assay: Growth inhibition of human SW620 cells assessed as cell growth at 10^-4 M after 48 hrs by sulforhodamine B assay. To be noted: SW-620, 48 h, read-out: Activity.
A further assay deals with NCI-H522. Description: Growth inhibition of human NCI-H522 cells assessed as cell growth at 10^-4 M after 48 hrs by sulforhodamine B assay. To be noted: NCI-H522, 48 h, read-out: Activity.
For assay [4], the system named is ACHN. Nature of the assay: Growth inhibition of human ACHN cells assessed as cell growth at 10^-6 M after 48 hrs by sulforhodamine B assay. To be noted: read-out: Activity.
The nature of assay [5]: Growth inhibition of human Hs 578T cells assessed as cell growth at 10^-6 M after 48 hrs by sulforhodamine B assay. To be noted: read-out: Activity.
Another assay relates to UACC-62. Nature of the assay: Growth inhibition of human UACC62 cells assessed as cell growth at 10^-8 M after 48 hrs by sulforhodamine B assay. To be noted: UACC-62, 48 h, read-out: Activity.
The subject of assay [6] is A549. Description: Growth inhibition of human A549/ATCC cells assessed as cell growth at 10^-7 M after 48 hrs by sulforhodamine B assay. To be noted: A549, 48 h, read-out: Activity.
The test system of another assay is SNB-75. Nature of the assay: Growth inhibition of human SNB75 cells assessed as cell growth at 10^-8 M after 48 hrs by sulforhodamine B assay. To be noted: SNB-75, 48 h, read-out: Activity.
In a further assay the test system is M14. Description: Growth inhibition of human M14 cells assessed as cell growth at 10^-5 M after 48 hrs by sulforhodamine B assay. To be noted: M14, 48 h, read-out: Activity.
The next assay concerns LOX IMVI. Nature of the assay: Growth inhibition of human LOXIMVI cells assessed as cell growth at 10^-5 M after 48 hrs by sulforhodamine B assay. To be noted: read-out: Activity.
The test system of the next assay is MDA-MB-435. Description: Growth inhibition of human MDA-MB-435 cells assessed as cell growth at 10^-8 M after 48 hrs by sulforhodamine B assay. To be noted: MDA-MB-435, 48 h, read-out: Activity.
The nature of assay [7]: Growth inhibition of human NCI-ADR-RES cells assessed as cell growth at 10^-6 M after 48 hrs by sulforhodamine B assay. To be noted: read-out: Activity.
In another assay the test system is SF-295. Description: Growth inhibition of human SF295 cells assessed as cell growth at 10^-7 M after 48 hrs by sulforhodamine B assay. To be noted: SF-295, 48 h, read-out: Activity.
Assay [8] relates to ACHN. Nature of the assay: Growth inhibition of human ACHN cells assessed as cell growth at 10^-4 M after 48 hrs by sulforhodamine B assay. To be noted: read-out: Activity.
In assay [9] the test system is SR. Description: Growth inhibition of human SR cells assessed as cell growth at 10^-6 M after 48 hrs by sulforhodamine B assay. To be noted: read-out: Activity.
Assay [10] in a line: Growth inhibition of human NCI-ADR-RES cells assessed as cell growth at 10^-7 M after 48 hrs by sulforhodamine B assay. To be noted: read-out: Activity.
For the next assay, the system named is SN12C. Nature of the assay: Growth inhibition of human SN12C cells assessed as cell growth at 10^-4 M after 48 hrs by sulforhodamine B assay. To be noted: read-out: Activity.

With `COc1cc(-c2nn(-c3cccc(NC(=O)c4ccccc4)c3)cc2-c2ccncc2)ccc1Cl`, the growth at 100 µM in the assay on SR [1] was 12%; in assay [3], 32%; in the assay on SW-620, 14%; in the assay on NCI-H522, 6%; in the assay with ACHN [8], 27%; in the assay with SN12C it was 36%. Besides, the growth at 0.1 µM in the assay on MOLT-4 came out at 99%; with A549 [6], 94%; with SF-295, 90%; in assay [10] it was 92%. Moreover, the growth at 10 µM in the assay on A549 [2] worked out at 17%; in the assay on M14, 5%; in the assay with LOX IMVI it was 11%. Moreover, the growth at 1 µM in the assay on TK-10 was found to be 80%; in the assay on ACHN [4], 44%; in [5] it was 52%; in assay [7], 28%; in the assay with SR [9], 7%. The values for the growth at 0.01 µM in the assay on UACC-62, in the assay on SNB-75 and in the assay with MDA-MB-435 were 98%, 89% and 96%, respectively.
